# Test results as given in patent US9120812B2, “Pyrimidooxazocine derivatives as mTOR-inhibitors” (SANOFI, priority 2012, dated 2015).
# Key:
# [1] = target: mTOR (human recombinant aa mTOR 1360-2549) (Homo sapiens (Human), UniProt P42345); test: mTOR enzymatic test by TR-FRET (phosphorylation of GFP-4EBP1); assay type: biochemical
# Procedure: Model 1: mTOR Enzymatic Test by TR-FRET (Time-resolved Fluorescence Resonance Energy Transfer).
# The test detects the phosphorylation of the substrate GFP-4EBP1 using a terbium-labelled antibody that is specific for the phospho-Thr46 epitope. Binding of the Tb-antibody to the phosphorylated GFP peptide allows the transfer of energy from Tb, excited at 340 nm, to GFP with an increase in the fluorescence emission of the GFP at 520 nm. […] The mixture is incubated for 30 minutes at room temperature. 10 μl of solution are taken up and the reaction is quenched by adding 10 μl of Tb-antibody solution (Invitrogen PV4757)/EDTA (2 nM Tb-Ac and 10 mM EDTA final). After 60 minutes at room temperature, the fluorescence at 490 nm, from the Tb emission, and at 520 nm, from the GFP emission, is measured in a BMG PHERAstar reader equipped with a Lanthascreen™ filter (excitation at 340 nm, emission at 490 and 520 nm). The results are given in the form of the 520/490 ratio.
# U87MG tumour cells = test: Test of in vitro proliferation of U87MG tumour cells; assay type: cell-based; details: Homo sapiens, U-87 MG, 72 h, U87MG cells, 72 hours; read-out: U87 Cell Proliferation IC50
# Procedure: Model 4: Test of in vitro Proliferation of U87MG Tumour Cells.
# The cell growth is determined with the reagent CellTiter 96 AQueous One Solution Cell Proliferation Assay from Promega (Cat. No. G3581).
# Akt-pS473 in U87MG cells = details: Homo sapiens, U-87 MG; for IC50: read-out: U87 Akt-pS473 % Inhibition or IC50, nM (IC50), U87MG cells; for inhibition at 1 µM: read-out: U87 Akt-pS473 % Inhibition
# Procedure: Model 3: Cellular Test of Phosphorylation of the Epitope S473 of the Akt Protein on the U87MG Line Via an ELISA Test
# An electrochemiluminescence signal is generated by a ruthenium-labelled anti-rabbit antibody.
# After culturing for 16-20 hours (the cells are at 100% of confluence) at 37° C. under 5% CO2, 1 μl of the chemical compounds in 100% DMSO (1% DMSO final concentration on the cells) is added. The cells are incubated with the compounds for 3 hours at 37° C. under 5% CO2.
# The free sites are blocked with 150 μl/well of a buffer of 50 mM Tris pH 7.5, 0.15 M NaCl, 0.02% Tween 20, 3% BSA with stirring at 450 rpm for 1 hour at room temperature, followed by a step of washing with 3×300 μl of a buffer of 50 mM Tris pH 7.5, 0.15 M NaCl, 0.02% Tween 20.
# 15 μl of cell lysate are mixed with 15 μl of a 50 mM buffer of Tris pH 7.5, 0.15 M NaCl, 0.02% Tween 20, 1% BSA in a precoated ELISA plate (see above), and incubated for 1 hour at room temperature with stirring, followed by a step of washing with 3×300 μl of a buffer of 50 mM Tris pH 7.5, 0.15 M NaCl, 0.02% Tween 20. The pS473 epitope of Akt is detected with a rabbit polyclonal antibody (Cell Signaling, SC9271), diluted 100-fold in 50 mM Tris pH 7.5, 0.15 M NaCl, 0.02% Tween 20, 1% BSA, 25 μl/well (incubation for 1 hour at room temperature with stirring at 450 rpm).
# After washing (see above), revelation is performed with a ruthenium-labelled anti-rabbit antibody (MSD R32AB1), diluted 3000-fold in a 50 mM buffer of Tris pH 7.5, 0.15 M NaCl, 0.02% Tween 20, 1% BSA, 25 μl/well, followed by incubation for 1 hour at room temperature with stirring at 450 rpm, and the plates are covered with aluminium.
# After a further washing step, the plates are emptied and 150 μl of MSD Read Buffer T diluted fourfold with water are added. The electrochemiluminescence is measured on the MSD Sector Imager 6000.
# PI3Kα (p110α/p85α) = PI3Kα (p110α/p85α) (Homo sapiens (Human), UniProt P42336); test: PI3Kα enzymatic test by measuring the consumption of ATP; assay type: biochemical
# Procedure: Model 2: PI3Kα Enzymatic Test by Measuring the Consumption of ATP.
# The test uses a lucifeurerin/luciferase system to measure the concentration of ATP and its consumption during the enzymatic reaction. The test is performed in 96-well format (Corning/Costar 96 black flat-bottomed half-wells plate, ref. 3694) in a total volume of 30 μl.
# To 1 μl of inhibitor in 100% DMSO are added (final concentrations) 50 μM of the substrate PIP2 ((L-α-phosphatidyl-D-myoinositol 4,5-bisphosphate, Echelon 117P-4516-0500), 2 μM of ATP and 1.7 μg/ml of PI3Kα, (p110α/p85α, Invitrogen PV4788) in a buffer of Tris/HCl 50 mM pH 7.5, EGTA 1 mM, MgCl2 10 mM, Chaps 0.03%, 1 mM DTT). After 90 minutes, the reaction is quenched by adding 20 μl/well of KinaseGlo reagent (Promega V6713). After 10 minutes in the dark, the luminescence is read on the PHERAStar microplate reader (reading at 0.8 sec/well).
# The IC50 values are determined by the preparation of successive threefold dilutions on at least a scale of 10 000.
# Sequence of PI3Kα (p110α/p85α) (P42336 whole entry): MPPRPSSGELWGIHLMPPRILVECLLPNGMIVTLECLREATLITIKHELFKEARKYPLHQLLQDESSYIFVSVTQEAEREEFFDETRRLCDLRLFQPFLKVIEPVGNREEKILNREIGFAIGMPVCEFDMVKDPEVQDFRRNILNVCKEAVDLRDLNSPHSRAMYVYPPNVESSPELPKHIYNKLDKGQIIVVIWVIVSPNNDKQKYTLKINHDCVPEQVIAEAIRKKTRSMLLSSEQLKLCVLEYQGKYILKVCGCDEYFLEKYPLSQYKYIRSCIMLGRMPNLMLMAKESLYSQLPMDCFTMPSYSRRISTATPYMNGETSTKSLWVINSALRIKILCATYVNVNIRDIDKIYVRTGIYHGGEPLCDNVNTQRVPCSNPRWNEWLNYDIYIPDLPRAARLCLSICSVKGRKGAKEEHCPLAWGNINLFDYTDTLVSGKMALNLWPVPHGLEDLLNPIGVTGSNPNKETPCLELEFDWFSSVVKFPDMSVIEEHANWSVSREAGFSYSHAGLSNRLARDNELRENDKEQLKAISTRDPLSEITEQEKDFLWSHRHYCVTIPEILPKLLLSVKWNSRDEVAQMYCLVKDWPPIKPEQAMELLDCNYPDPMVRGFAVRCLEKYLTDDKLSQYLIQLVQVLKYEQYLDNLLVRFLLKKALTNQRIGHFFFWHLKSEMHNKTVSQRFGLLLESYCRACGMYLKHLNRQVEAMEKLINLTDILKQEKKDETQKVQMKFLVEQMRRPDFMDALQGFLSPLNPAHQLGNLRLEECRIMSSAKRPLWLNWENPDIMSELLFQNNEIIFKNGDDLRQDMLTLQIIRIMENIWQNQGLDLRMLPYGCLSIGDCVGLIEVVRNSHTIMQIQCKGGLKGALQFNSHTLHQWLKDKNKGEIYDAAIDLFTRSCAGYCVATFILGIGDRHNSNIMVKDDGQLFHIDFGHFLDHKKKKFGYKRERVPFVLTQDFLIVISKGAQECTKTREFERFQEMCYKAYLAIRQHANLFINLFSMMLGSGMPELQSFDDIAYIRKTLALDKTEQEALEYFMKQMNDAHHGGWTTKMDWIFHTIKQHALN
# Sequence of PI3Kα (p110α/p85α) (P27986 whole entry partner): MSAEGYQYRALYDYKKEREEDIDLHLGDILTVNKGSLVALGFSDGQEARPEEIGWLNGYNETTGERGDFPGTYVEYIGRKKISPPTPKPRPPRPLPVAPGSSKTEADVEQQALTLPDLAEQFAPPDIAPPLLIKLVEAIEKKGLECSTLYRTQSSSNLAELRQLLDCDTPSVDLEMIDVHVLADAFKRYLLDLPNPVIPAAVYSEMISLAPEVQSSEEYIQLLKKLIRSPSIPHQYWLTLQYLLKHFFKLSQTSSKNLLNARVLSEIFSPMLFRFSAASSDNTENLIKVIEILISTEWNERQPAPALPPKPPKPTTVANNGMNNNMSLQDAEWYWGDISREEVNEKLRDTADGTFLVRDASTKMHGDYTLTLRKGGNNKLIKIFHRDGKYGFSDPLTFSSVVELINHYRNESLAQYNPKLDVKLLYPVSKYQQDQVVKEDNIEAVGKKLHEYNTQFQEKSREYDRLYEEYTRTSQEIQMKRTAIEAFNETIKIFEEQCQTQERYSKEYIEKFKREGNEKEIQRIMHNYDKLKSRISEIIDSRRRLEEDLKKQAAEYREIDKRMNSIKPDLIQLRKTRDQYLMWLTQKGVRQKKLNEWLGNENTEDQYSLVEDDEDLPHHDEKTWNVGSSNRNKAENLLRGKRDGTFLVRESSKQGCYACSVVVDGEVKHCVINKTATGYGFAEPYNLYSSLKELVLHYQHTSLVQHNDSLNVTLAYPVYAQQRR
# Sequence of mTOR (human recombinant aa mTOR 1360-2549) (P42345 1360-2549): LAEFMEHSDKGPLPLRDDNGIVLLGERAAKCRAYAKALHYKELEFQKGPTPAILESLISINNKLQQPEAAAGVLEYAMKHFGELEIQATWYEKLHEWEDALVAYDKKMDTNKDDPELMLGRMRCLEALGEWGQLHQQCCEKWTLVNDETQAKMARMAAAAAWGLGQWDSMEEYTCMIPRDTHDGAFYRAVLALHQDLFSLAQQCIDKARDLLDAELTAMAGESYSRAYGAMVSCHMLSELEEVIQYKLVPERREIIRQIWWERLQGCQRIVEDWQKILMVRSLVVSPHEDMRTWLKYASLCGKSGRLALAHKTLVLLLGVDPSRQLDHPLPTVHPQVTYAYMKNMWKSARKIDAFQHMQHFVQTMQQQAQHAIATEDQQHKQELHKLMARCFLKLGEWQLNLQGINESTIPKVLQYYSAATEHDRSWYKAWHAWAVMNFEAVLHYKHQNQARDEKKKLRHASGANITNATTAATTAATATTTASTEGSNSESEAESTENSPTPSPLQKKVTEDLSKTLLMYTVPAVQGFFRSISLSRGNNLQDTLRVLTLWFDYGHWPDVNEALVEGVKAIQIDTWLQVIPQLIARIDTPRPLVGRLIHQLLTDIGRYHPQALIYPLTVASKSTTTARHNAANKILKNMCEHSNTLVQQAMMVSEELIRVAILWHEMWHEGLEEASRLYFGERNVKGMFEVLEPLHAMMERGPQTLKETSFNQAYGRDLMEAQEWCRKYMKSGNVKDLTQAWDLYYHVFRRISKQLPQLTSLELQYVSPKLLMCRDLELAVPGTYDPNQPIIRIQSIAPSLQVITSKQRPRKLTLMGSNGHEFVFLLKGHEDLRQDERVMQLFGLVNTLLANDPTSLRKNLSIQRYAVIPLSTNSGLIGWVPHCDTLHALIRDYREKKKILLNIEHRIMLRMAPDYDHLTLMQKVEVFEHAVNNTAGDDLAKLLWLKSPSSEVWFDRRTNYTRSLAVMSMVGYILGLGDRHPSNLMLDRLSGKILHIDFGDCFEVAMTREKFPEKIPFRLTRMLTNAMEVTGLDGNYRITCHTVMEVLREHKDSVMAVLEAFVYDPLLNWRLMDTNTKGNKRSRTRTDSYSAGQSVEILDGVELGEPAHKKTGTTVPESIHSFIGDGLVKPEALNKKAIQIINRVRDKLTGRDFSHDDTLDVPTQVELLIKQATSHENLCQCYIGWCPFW
SMILES,IC50 [1] [nM],IC50 (U87MG tumour cells) [nM],IC50 (Akt-pS473 in U87MG cells) [nM],inhibition at 1 µM (Akt-pS473 in U87MG cells) [%],PI3Ka IC50 (PI3Kα (p110α/p85α)) [nM]
"CCN1CC(C)(C)Oc2nc(N3CC4CCC(C3)O4)nc(-c3ccc(NC(=O)NCC(C)(C)O)c(F)c3)c2C1=O [Example 24, 1-{4-[6-ethyl-8,8-dimethyl-2-(8-oxa-3-azabicyclo[3.2.1]oct-3-yl)-5-oxo-5,6,7,8-tetrahydro-9-oxa-1,3,6-triazabenzocyclohepten-4-yl]-2-fluorophenyl}-3-(2-hydroxy-2-methylpropyl)urea]",1070,> 10000,> 1000,–,–
"CCN1CC(C)(C)Oc2nc(N3CC4CCC(C3)O4)nc(-c3ccc(NC(=O)N[C@H](C)CO)c(F)c3)c2C1=O [Example 27, 1-{4-[6-ethyl-8,8-dimethyl-2-(8-oxa-3-azabicyclo[3.2.1]oct-3-yl)-5-oxo-5,6,7,8-tetrahydro-9-oxa-1,3,6-triazabenzocyclohepten-4-yl]-2-fluorophenyl}-3-((R)-2-hydroxy-1-methylethyl)urea]",394,9150,> 1000,–,–
"CCN1CC(C)(C)Oc2nc(N3CC4CCC(C3)O4)nc(-c3ccc(NC(=O)N[C@@H](C)CO)c(F)c3)c2C1=O [Example 57, 1-{4-[6-Ethyl-8,8-dimethyl-2-(8-oxa-3-azabicyclo[3.2.1]oct-3-yl)-5-oxo-5,6,7,8-tetrahydro-9-oxa-1,3,6-triazabenzocyclohepten-4-yl]-2-fluorophenyl}-3-((S)-2-hydroxy-1-methylethyl)urea]",–,7580,> 1000,–,–
"Cc1cc(NC(=O)Nc2ccc(-c3nc(N4CC5CCC(C4)O5)nc4c3C(=O)N(C)CC(C)(C)O4)cc2F)ccn1 [Example 60, 1-{2-Fluoro-4-[6,8,8-trimethyl-2-(8-oxa-3-azabicyclo[3.2.1]oct-3-yl)-5-oxo-5,6,7,8-tetrahydro-9-oxa-1,3,6-triazabenzocyclohepten-4-yl]phenyl}-3-(2-methylpyridin-4-yl)urea]",58,46,17,–,–
"CCN1CC(C)(C)Oc2nc(N3CC4CCC(C3)O4)nc(-c3ccc(NC(=O)O[C@@H](C)CO)c(F)c3)c2C1=O [Example 61, {4-[6-Ethyl-8,8-dimethyl-2-(8-oxa-3-azabicyclo[3.2.1]oct-3-yl)-5-oxo-5,6,7,8-tetrahydro-9-oxa-1,3,6-triazabenzocyclohepten-4-yl]-2-fluorophenyl}carbamic acid (S)-2-hydroxy-1-methylethyl ester]",993,4670,> 1000,–,–
"CCN1CC(C)(C)Oc2nc(N3CC4CCC(C3)O4)nc(-c3ccc(NC(=O)Nc4cc(C)nc(C)n4)c(F)c3)c2C1=O [Example 90, 1-(2,6-Dimethylpyrimidin-4-yl)-3-{4-[6-ethyl-8,8-dimethyl-2-(8-oxa-3-azabicyclo[3.2.1]oct-3-yl)-5-oxo-5,6,7,8-tetrahydro-9-oxa-1,3,6-triazabenzocyclohepten-4-yl]-2-fluorophenyl}urea]",450,2900,–,64,–
"CCNC(=O)Nc1ccc(-c2nc(N3CCOCC3)nc3c2C(=O)NCC(C)(C)O3)cc1 [Example 94, 1-[4-(8,8-Dimethyl-2-morpholin-4-yl-5-oxo-5,6,7,8-tetrahydro-9-oxa-1,3,6-triazabenzocyclohepten-4-yl)phenyl]-3-ethylurea]",112,–,> 10000,–,7320
"CCN1CC(C)(C)Oc2nc(N3CC4CCC(C3)O4)nc(-c3ccc(NC(=O)Nc4ccn(C)n4)cc3)c2C1=O [Example 122, 1-{4-[6-Ethyl-8,8-dimethyl-2-(8-oxa-3-azabicyclo[3.2.1]oct-3-yl)-5-oxo-5,6,7,8-tetrahydro-9-oxa-1,3,6-triazabenzocyclohepten-4-yl]phenyl}-3-(1-methyl-1H-pyrazol-3-yl)urea]",–,340,140,–,–
"CCN1CC(C)(C)Oc2nc(N3CC4CCC(C3)O4)nc(-c3ccc(NC(=O)Nc4cnccn4)cc3)c2C1=O [Example 125, 1-{4-[6-Ethyl-8,8-dimethyl-2-(8-oxa-3-azabicyclo[3.2.1]oct-3-yl)-5-oxo-5,6,7,8-tetrahydro-9-oxa-1,3,6-triazabenzocyclohepten-4-yl]phenyl}-3-pyrazin-2-ylurea]",–,260,86,–,–
"CCN1CC(C)(C)Oc2nc(N3CC4CCC(C3)O4)nc(-c3ccc(NC(=O)NCC4CCCO4)c(F)c3)c2C1=O (centres unmarked) [Example 128, 1-{4-[6-Ethyl-8,8-dimethyl-2-(8-oxa-3-azabicyclo[3.2.1]oct-3-yl)-5-oxo-5,6,7,8-tetrahydro-9-oxa-1,3,6-triazabenzocyclohepten-4-yl]-2-fluorophenyl}-3-(tetrahydrofuran-2-ylmethyl)urea]",3480,> 10000,–,–,>10000
"CCN1CC(C)(C)Oc2nc(N3CC4CCC(C3)O4)nc(-c3ccc(NC(=O)Nc4cccc(OC)n4)c(F)c3)c2C1=O [Example 142, 1-{4-[6-Ethyl-8,8-dimethyl-2-(8-oxa-3-azabicyclo[3.2.1]oct-3-yl)-5-oxo-5,6,7,8-tetrahydro-9-oxa-1,3,6-triazabenzocyclohepten-4-yl]-2-fluorophenyl}-3-(6-methoxypyridin-2-yl)urea]",495,3100,–,–,>10000
"CCN1CC(C)(C)Oc2nc(N3CC4CCC(C3)O4)nc(-c3ccc(NC(=O)NCc4ccc(OC)nc4)c(F)c3)c2C1=O [Example 145, 1-{4-[6-Ethyl-8,8-dimethyl-2-(8-oxa-3-azabicyclo[3.2.1]oct-3-yl)-5-oxo-5,6,7,8-tetrahydro-9-oxa-1,3,6-triazabenzocyclohepten-4-yl]-2-fluorophenyl}-3-(6-methoxypyridin-3-ylmethyl)urea]",2980,> 10000,–,–,>10000
"CCN1CC(C)(C)Oc2nc(N3CC4CCC(C3)O4)nc(-c3ccc(NC(=O)Nc4ccc(OC)nc4)c(C)c3)c2C1=O [Example 175, 1-{4-[6-Ethyl-8,8-dimethyl-2-(8-oxa-3-azabicyclo[3.2.1]oct-3-yl)-5-oxo-5,6,7,8-tetrahydro-9-oxa-1,3,6-triazabenzocyclohepten-4-yl]-2-methylphenyl}-3-(6-methoxypyridin-3-yl)urea]",585,3050,–,–,>10000
"COCCN1CC(C)(C)Oc2nc(N3CCOC[C@@H]3C)nc(-c3ccc(NC(=O)Nc4cccc(OC(F)F)c4)cc3)c2C1=O [Example 216, 1-(3-Difluoromethoxyphenyl)-3-{4-[6-(2-methoxyethyl)-8,8-dimethyl-2-((S)-3-methylmorpholin-4-yl)-5-oxo-5,6,7,8-tetrahydro-9-oxa-1,3,6-triazabenzocyclohepten-4-yl]phenyl}urea]",125,514,–,–,1830
"COCCN1CC(C)(C)Oc2nc(N3CC4CCC(C3)O4)nc(-c3ccc(NC(=O)Nc4cccc(OC(F)F)c4)c(F)c3)c2C1=O [Example 220, 1-(3-Difluoromethoxyphenyl)-3-{2-fluoro-4-[6-(2-methoxyethyl)-8,8-dimethyl-2-(8-oxa-3-azabicyclo[3.2.1]oct-3-yl)-5-oxo-5,6,7,8-tetrahydro-9-oxa-1,3,6-triazabenzocyclohepten-4-yl]phenyl}urea]",348,285,30,–,–
"CCN1CC(C)(C)Oc2nc(N3CC4CCC(C3)O4)nc(-c3ccc(NC(=O)OC[C@@H](C)O)c(F)c3)c2C1=O [Example 239, {4-[6-Ethyl-8,8-dimethyl-2-(8-oxa-3-azabicyclo[3.2.1]oct-3-yl)-5-oxo-5,6,7,8-tetrahydro-9-oxa-1,3,6-triazabenzocyclohepten-4-yl]-2-fluorophenyl}carbamic acid (R)-2-hydroxypropyl ester]",1070,> 10000,–,38,–
"CCN1CC(C)(C)Oc2nc(N3CC4CCC(C3)O4)nc(-c3ccc(NC(=O)Nc4ccnc(N5CCC(F)(F)CC5)c4)c(F)c3)c2C1=O [Example 261, 1-(4,4-Difluoro-3,4,5,6-tetrahydro-2H-[1,2′]bipyridinyl-4′-yl)-3-{4-[6-ethyl-8,8-dimethyl-2-(8-oxa-3-azabicyclo[3.2.1]oct-3-yl)-5-oxo-5,6,7,8-tetrahydro-9-oxa-1,3,6-triazabenzocyclohepten-4-yl]-2-fluorophenyl}urea]",–,160,20,–,–
